Measurements taken from patent publication US7510825B2, “Kits and methods for detection of apoptotic cells” (NST NeuroSurvival Technologies Ltd, priority 2000, dated 2009).

How the values were obtained:
[1] = test system: MCF-7 breast carcinoma tumors; test: Detection by DDC of apoptosis in breast carcinoma after irradiation; assay type: in vivo, mice; conditions: following irradiation (two doses of 8 Gray) vs non irradiated
Protocol: (§1) A. Administration of DDC in-vivo: Injection of 200 μl of DDC intravenously. Following 1-2 hours, animal is sacrificed, and the desired organ is placed in a test tube or on a small plate, suitable for liquid nitrogen freezing. The plate is then covered with an aluminum foil, and transferred to liquid nitrogen. Following 5-30 minutes the specimen is being frozen to −80° C. and kept at −80° C. for at least 16 hr. B. Analysis of the Specimen: • a. Whole organ imaging Ex-vivo whole organ fluorescence imaging may be carried out on freshly excised specimen, that can be analyzed under a stereomicroscope (such as Leica MZ FL III, Leica Switzerland). DDC may be visualized using 360cx and >420cm nm filter set. Emitted fluorescence can be imaged using appropriate camera and software, such as a Leica DC 300F Distal camera and images can be processed and analyzed by Leica QWin Lite software. • b. Histological analysis, from the frozen organ or tissue, 4 μm cryosections are prepared on slides. Analysis of the tissue sections can be performed using a fluorescence microscope with a UV filter characterized by excitation at 360-370 nm (band pass) and emission at 420 nm (barrier filter) In case that staining of the examined tissue is desired, the following procedures can be applied: […]

[2] = test system: neurons of the ischemic region; test: Detection by DDC of permanent ischemia by MCA cauterization; assay type: in vivo, mice; conditions: DDC i.v. 22 hours from the insult; adjacent slides
Protocol: A. Administration of DDC in-vivo: Injection of 200 μl of DDC intravenously. Following 1-2 hours, animal is sacrificed, and the desired organ is placed in a test tube or on a small plate, suitable for liquid nitrogen freezing. The plate is then covered with an aluminum foil, and transferred to liquid nitrogen. Following 5-30 minutes the specimen is being frozen to −80° C. and kept at −80° C. for at least 16 hr. B. Analysis of the Specimen: • a. Whole organ imaging Ex-vivo whole organ fluorescence imaging may be carried out on freshly excised specimen, that can be analyzed under a stereomicroscope (such as Leica MZ FL III, Leica Switzerland). DDC may be visualized using 360cx and >420cm nm filter set. Emitted fluorescence can be imaged using appropriate camera and software, such as a Leica DC 300F Distal camera and images can be processed and analyzed by Leica QWin Lite software. • b. Histological analysis, from the frozen organ or tissue, 4 μm cryosections are prepared on slides. Analysis of the tissue sections can be performed using a fluorescence microscope with a UV filter characterized by excitation at 360-370 nm (band pass) and emission at 420 nm (barrier filter) In case that staining of the examined tissue is desired, the following procedures can be applied:
A permanent ischemia by MCA cauterization was induced in Balb/c mice (Harlan laboratories). […]

[3] = test system: hepatocytes (liver sections); test: Detection by DDC in vivo of liver-cell apoptosis induced by anti-Fas antibody; set-up: species or system mice
Protocol: Selective detection of apoptotic cells in vivo has numerous diagnostic and therapeutic clinical applications. […] Treatment of mice with anti-Fas monoclonal agonistic antibody induces apoptosis of hepatocytes, leading to animal death of within several hours. The study included intravenous administration of DDC to anti-Fas-Ab-injected mice, as well as to control, untreated animals. Fluorescence histopathological studies were then performed to evaluate the level of DDC binding.
Five-week-old male BALB/c mice were injected intravenously with 10 μg/animal of purified hamster anti-Fas nAb. Mice were then injected intravenously with 70 mg/Kg of DDC. Injections were performed 30 minutes after antibody treatment. Control animals were injected with DDC only, without antibody administration. All animals were sacrificed three hours after administration of the antibody, followed by organ removal. Liver was sectioned transversely across the mid-portion of each lobe, dipped immediately into liquid nitrogen, and then transferred to −80° C. for 24 hours. Organs were then transferred into OCT solution, and cryosections (5 μm) were prepared. These sections were taken for fluorescent microscopy. Parallel sections were stained with hematoxylin/eosin (H&E), for simultaneous evaluation of the characteristic apoptotic morphology of the cells manifesting DDC binding.

[4] = test system: ischemic brain, damaged neuronal cells; test: DDC staining of ischemic damage following transient MCA occlusion; assay type: in vivo, rats; conditions: 2 h MCA occlusion and reperfusion, DDC at 22 hours
Protocol: A. Administration of DDC in-vivo: Injection of 200 μl of DDC intravenously. Following 1-2 hours, animal is sacrificed, and the desired organ is placed in a test tube or on a small plate, suitable for liquid nitrogen freezing. The plate is then covered with an aluminum foil, and transferred to liquid nitrogen. Following 5-30 minutes the specimen is being frozen to −80° C. and kept at −80° C. for at least 16 hr. B. Analysis of the Specimen: • a. Whole organ imaging Ex-vivo whole organ fluorescence imaging may be carried out on freshly excised specimen, that can be analyzed under a stereomicroscope (such as Leica MZ FL III, Leica Switzerland). […] Emitted fluorescence can be imaged using appropriate camera and software, such as a Leica DC 300F Distal camera and images can be processed and analyzed by Leica QWin Lite software. • b. […] Analysis of the tissue sections can be performed using a fluorescence microscope with a UV filter characterized by excitation at 360-370 nm (band pass) and emission at 420 nm (barrier filter) In case that staining of the examined tissue is desired, the following procedures can be applied:
Transient focal ischemia was induced by middle cerebral artery (MCA) occlusion and reperfusion. […] At 22 hours from MCA occlusion, neurological score was assessed and DDC was injected I.V. (as detailed in DDC protocols II-A) for a successive 2 h before sacrificing the animals. […]

[5] = test system: tubular epithelial cells of the septic kidney; test: Focal uptake of DDC in the septic kidney (cecal ligature and perforation); assay type: in vivo, mice; conditions: 24 h after cecal ligature and puncture
Protocol: as §1

[6] = test system: renal tubular cells, ischemic kidney; test: Renal cell injury (ischemia-reperfusion) detection by DDC; assay type: in vivo, rats
Protocol: as §1

CN(C)c1cccc2c(S(=O)(=O)NC(CSSCC(NS(=O)(=O)c3cccc4c(N(C)C)cccc34)C(=O)O)C(=O)O)cccc12 (stereo not shown) [DDC]
uptake of DDC into single cells of the tumor [1]: increased uptake
correlation of DDC staining of single neurons with H&E staining [2]: high correlation with H&E staining
binding of DDC in liver sections ([3]; animals treated with anti-Fas Ab 10 μg/animal, 70 mg/Kg DDC i.v.): marked, specific binding
binding of DDC in liver sections ([3]; control animals, 70 mg/Kg DDC i.v. only): no significant binding
DDC staining around the ischemic core and in the non-damaged contra-lateral hemisphere [4]: No staining was detected
DDC staining of the ischemic core ([4]; ex-vivo coronal section): high intensity staining
DDC staining versus TUNEL staining [5]: detected early apoptotic cells where TUNEL staining is still negative
identification of focal tubular cell injury ([5]; compared with H&E): clearly identified by DDC staining
DDC uptake, ischemic kidney compared with control kidney ([6]; 45 min renal artery clamping, DDC 20 h after reperfusion, ex-vivo whole organ fluorescence imaging): Significant increase in DDC uptake
DDC staining versus TUNEL staining ([6]; kidney sections after ischemia-reperfusion): Several cells were stained with DDC but were negative for TUNEL staining
